For this assay, the system named is MX-1 breast xenograft, nude mice, tumor weight T/C. The assay is described as follows: NCI In Vivo Anticancer Drug Screen. Data for tumor model Human Mammary Carcinoma MX-1 Xenograft (intrarenal inoculation) in NU/NU Swiss (nude) mice. The note with it: endpoint: mean tumor weight change, higher = larger tumour. Summed up:
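Antitumour effect measured in vivo against vehicle controls, expressed as T/C.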
For orientation: A xenograft is tissue or cells of one species grown in another, often human tumour cells in immunodeficient mice.

Setting [1] is: dose: 150.0 mg/kg/injection, schedule: Q04DX003 (sc), vehicle: Klucel (hydroxypropylcellulose) (HPC).
The mark [2] stands for this setting: dose: 2400.0 mg/kg/injection, schedule: Q04DX003 (sc), vehicle: Klucel (hydroxypropylcellulose) (HPC).
The mark [3] stands for this setting: dose: 150.0 mg/kg/injection, schedule: Q04DX003 (sc), vehicle: saline with Tween-80.
Where [4] appears, read: dose: 300.0 mg/kg/injection, schedule: Q04DX003 (sc), vehicle: saline with Tween-80.
[5] abbreviates: dose: 37.5 mg/kg/injection, schedule: Q04DX003 (sc), vehicle: Klucel (hydroxypropylcellulose) (HPC).
[6] abbreviates: dose: 75.0 mg/kg/injection, schedule: Q04DX003 (sc), vehicle: Klucel (hydroxypropylcellulose) (HPC).
The mark [7] stands for this setting: dose: 300.0 mg/kg/injection, schedule: Q04DX003 (sc), vehicle: Klucel (hydroxypropylcellulose) (HPC).
Where [8] appears, read: dose: 600.0 mg/kg/injection, schedule: Q04DX003 (sc), vehicle: Klucel (hydroxypropylcellulose) (HPC).
Setting [9] is: dose: 1200.0 mg/kg/injection, schedule: Q04DX003 (sc), vehicle: Klucel (hydroxypropylcellulose) (HPC).
Where [10] appears, read: dose: 600.0 mg/kg/injection, schedule: Q04DX003 (sc), vehicle: saline with Tween-80.

Values joined by “and” are separate entries in the source; they are usually repeats but may differ in a detail not shown here. Identical values can stand only once. Results filed as inconclusive are left out.

As to `COc1cccc2c1C(=O)c1c(O)c3c(c(O)c1C2=O)C[C@@](O)(/C(C)=N/NC(=O)c1ccc(Cl)cc1)C[C@@H]3OC1CC(N)C(O)C(C)O1` (stereo not given in full), the T/C reads like this: (dose: 1.0 mg/kg/injection, schedule: Q01DX010 (sc), vehicle: water) 58 % of control; (dose: 4.0 mg/kg/injection, schedule: Q01DX010 (sc), vehicle: water) 84 % of control and 109 % of control; (dose: 16.0 mg/kg/injection, schedule: Q01DX010 (sc), vehicle: water) 49 % of control.

As for `CSc1ncnc2c1ncn2C1OC(CO)C(O)C1O` (stereo not given), the T/C is 3 % of control and 14 % of control (dose: 75.0 mg/kg/injection, schedule: Q04DX003 (sc), vehicle: saline + alcohol); -81 % of control and -100 % of control (dose: 150.0 mg/kg/injection, schedule: Q04DX003 (sc), vehicle: saline + alcohol); -90 % of control (dose: 300.0 mg/kg/injection, schedule: Q04DX003 (sc), vehicle: saline + alcohol).

For the molecule `CC(=O)C(=O)O.CC(=O)C(=O)O.[NH-]C1CCCCC1[NH-].[Pt+2]` (stereo not given), the T/C by setting is: (dose: 6.25 mg/kg/injection, schedule: Q04DX003 (ip), vehicle: other) 46 % of control; (dose: 12.5 mg/kg/injection, schedule: Q04DX003 (ip), vehicle: other) 74 % of control; (dose: 25.0 mg/kg/injection, schedule: Q04DX003 (ip), vehicle: other) 45 % of control; (dose: 50.0 mg/kg/injection, schedule: Q04DX003 (ip), vehicle: other) 12 % of control; (dose: 100.0 mg/kg/injection, schedule: Q04DX003 (ip), vehicle: other) 9 % of control.

As to `O=C1NC2(CCCCC2)C(=O)N1CCN(CCCl)CCCl`, the T/C (dose: 3.0 mg/kg/injection, schedule: Q01DX010 (sc), vehicle: saline) was 48 % of control.

Turning to `CC1=CC(=Nc2ccc(N(CCCl)CCCl)cc2)C=C(C)C1=O`, the T/C under setting [1] was 34 % of control and the T/C under setting [2] was -89 % of control.

With `O=C1C2CC=CCC2C(=O)N1SC(Cl)(Cl)Cl` (stereo not given), the T/C reads like this: (dose: 37.5 mg/kg/injection, schedule: Q04DX003 (sc), vehicle: saline with Tween-80) 85 % of control; (dose: 75.0 mg/kg/injection, schedule: Q04DX003 (sc), vehicle: saline with Tween-80) 77 % of control; under setting [3], 97 % of control and 119 % of control; under setting [4], 97 % of control and 112 % of control.

For `O=C1C2(Cl)C3(Cl)C4(Cl)C(Cl)(Cl)C5(Cl)[C@]3(Cl)C1(Cl)[C@]5(Cl)C24Cl` (stereo not given in full), the T/C reads like this: under setting [5], 120 % of control; under setting [6], 121 % of control.

`CC(=O)N(C)C`: the T/C is, setting by setting: (dose: 168.75 mg/kg/injection, schedule: Q04DX003 (sc), vehicle: saline) 81 % of control; (dose: 337.5 mg/kg/injection, schedule: Q04DX003 (sc), vehicle: saline) 100 % of control; (dose: 675.0 mg/kg/injection, schedule: Q04DX003 (sc), vehicle: saline) 85 % of control; (dose: 1350.0 mg/kg/injection, schedule: Q04DX003 (sc), vehicle: saline) 61 % of control.

Turning to `Cc1ccc(C(=O)[O][Hg][CH2]C2COC([CH2][Hg][O]C(=O)c3ccc(C)cc3)CO2)cc1` (stereo not given), the T/C by setting is: under setting [7], 109 % of control; under setting [8], 106 % of control; under setting [9], 72 % of control; under setting [2], 102 % of control.

In the case of `F[B-](F)(F)F`, the T/C (dose: 300.0 mg/kg/injection, schedule: Q04DX003 (sc), vehicle: gum acacia) is 106 % of control; the T/C (dose: 600.0 mg/kg/injection, schedule: Q04DX003 (sc), vehicle: gum acacia) was 104 % of control; the T/C (dose: 1200.0 mg/kg/injection, schedule: Q04DX003 (sc), vehicle: gum acacia) was 70 % of control.

Regarding `Cc1ccc(N)c(N)c1`, the T/C is, setting by setting: (dose: 200.0 mg/kg/injection, schedule: Q04DX003 (sc), vehicle: saline with Tween-80) 87 % of control; (dose: 800.0 mg/kg/injection, schedule: Q04DX003 (sc), vehicle: saline with Tween-80) 112 % of control.

Take `COC1N(C2CC(O)C(CO)O2)C(=O)NC(=O)C1(F)Br` (stereo not given): the T/C (dose: 12.5 mg/kg/injection, schedule: Q01DX010 (sc), vehicle: saline) is 117 % of control.

`CCC1(O)CC2CN(CCc3c([nH]c4ccccc34)C(C(=O)OC)(c3cc4c(cc3OC)N(C)C3C(O)(C(N)=O)C(O)C5(CC)C=CCN6CCC43C65)C2)C1` (stereo not given) (tested in a mixture with another compound): the T/C runs as follows: (dose: 0.75 mg/kg/injection, schedule: Q04DX003 (sc), vehicle: water) 27 % of control; (dose: 1.5 mg/kg/injection, schedule: Q04DX003 (sc), vehicle: water) 1 % of control; (dose: 6.0 mg/kg/injection, schedule: Q04DX003 (sc), vehicle: water) -44 % of control.

Consider `NC(=S)c1cn(C2OC(CO)C(O)C2O)c2ncnc(N)c12` (stereo not given), for which the T/C reads like this: (dose: 6.25 mg/kg/injection, schedule: Q04DX003 (sc), vehicle: suspension in saline) 50 % of control; (dose: 12.5 mg/kg/injection, schedule: Q04DX003 (sc), vehicle: suspension in saline) 9 % of control.

Take `O=C1C=CC(=O)N1c1ccc(Cl)cc1`: the T/C reads like this: under setting [5], 79 % of control; under setting [6], 91 % of control; under setting [1], 85 % of control.

For `CC(=O)OCC1OC(n2ncc(=O)[nH]c2=O)C(OC(C)=O)C1OC(C)=O` (stereo not given), the T/C was 67 % of control (dose: 150.0 mg/kg/injection, schedule: Q04DX003 (sc), vehicle: suspension in saline); 112 % of control (dose: 300.0 mg/kg/injection, schedule: Q04DX003 (sc), vehicle: suspension in saline); 78 % of control (dose: 600.0 mg/kg/injection, schedule: Q04DX003 (sc), vehicle: suspension in saline).

`CC(=O)NC(Cc1ccc(F)cc1)C(=O)O` (stereo not given): the T/C is, setting by setting: under setting [4], 100 % of control; under setting [10], 101 % of control; (dose: 1200.0 mg/kg/injection, schedule: Q04DX003 (sc), vehicle: saline with Tween-80) 120 % of control; (dose: 2400.0 mg/kg/injection, schedule: Q04DX003 (sc), vehicle: saline with Tween-80) 111 % of control.

Consider `O=Cc1c(O)c2ccccc2[nH]c1=O`, for which the T/C is 118 % of control under setting [3], 99 % of control under setting [4] and 86 % of control under setting [10].

`O=NN(CCCl)C(=O)Oc1ccc(OC(=O)N(CCCl)N=O)cc1`: the T/C was 107 % of control under setting [1], 95 % of control under setting [7], 91 % of control under setting [8] and 117 % of control under setting [9].

`COc1ccc2c(c1[N+](=O)[O-])CC[C@@H]1[C@@H]2CC[C@]2(C)C(=O)CC[C@@H]12`: the T/C (dose: 150.0 mg/kg/injection, schedule: Q04DX003 (ip), vehicle: saline with Tween-80) was 90 % of control; the T/C (dose: 300.0 mg/kg/injection, schedule: Q04DX003 (ip), vehicle: saline with Tween-80) was 111 % of control; the T/C (dose: 1200.0 mg/kg/injection, schedule: Q04DX003 (ip), vehicle: saline with Tween-80) is 102 % of control.

Consider `O=c1oc2c(O)c(O)cc3c(=O)oc4c(O)c(O)cc1c4c23`, for which the T/C was 115 % of control under setting [1], 109 % of control under setting [7], 67 % of control under setting [8] and 101 % of control under setting [9].

With `CN(C)N=Nc1cn[nH]c1C(N)=O`, the T/C runs as follows: (dose: 100.0 mg/kg/injection, schedule: Q04DX003 (sc), vehicle: suspension in saline) 98 % of control; (dose: 200.0 mg/kg/injection, schedule: Q04DX003 (sc), vehicle: saline) 63 % of control; (dose: 200.0 mg/kg/injection, schedule: Q04DX003 (sc), vehicle: suspension in saline) 67 % of control; (dose: 400.0 mg/kg/injection, schedule: Q04DX003 (sc), vehicle: saline) 49 % of control; (dose: 400.0 mg/kg/injection, schedule: Q04DX003 (sc), vehicle: suspension in saline) 31 % of control and 37 % of control; (dose: 800.0 mg/kg/injection, schedule: Q04DX003 (sc), vehicle: saline) 13 % of control. In addition, the T/C (dose: 800.0 mg/kg/injection, schedule: Q04DX003 (sc), vehicle: suspension in saline) is 2 % of control and 7 % of control.

Values taken from PubChem BioAssay AID296 (DTP/NCI, 2004).
